Experiments:
[1] = target: cloned human P2Y1 receptors (Homo sapiens (Human), UniProt P47900); experiment: Binding Assay B - Scintillation Proximity Assay (SPA) for P2Y1 binding, [33P] 2MeS-ADP; settings: SPA, 0.3 nM [33P] 2MeS-ADP, Cheng-Prusoff; read-out: P2Y1 Ki (nM) using binding assay B
Description: Binding Assay B—Scintillation Proximity Assay (SPA) for P2Y1 Binding
A SPA membrane binding assay was used to identify inhibitors of [^33P] […] Reactions were allowed to proceed to completion at room temperature for 1 hour followed by centrifugation of the plate for 5 min. About 40 μL of the aqueous solution was aspirated. Plates were sealed and the [^33P]

[2] = system: human platelet rich plasma (PRP); experiment: ADP induced platelet aggregation assay; settings: Homo sapiens, Platelet, 5 min, read-out: PA IC50 (μM) @ 10 μM ADP, human PRP, 10 μM ADP, AUC at 5 minute
Description: The ability of P2Y1 antagonists covered in the present invention to inhibit platelet aggregation induced by 10 μM ADP was tested using human platelet rich plasma (PRP) as described in Platelet Protocols: Research and Clinical Laboratory Procedures (White, M. M. et al., Academic Press (1999)). Human blood was collected in 30 μM (final concentration in blood) argatroban (GSK) as the anticoagulant at a ratio of 1 mL per 9 mL of blood. The PRP was isolated by centrifugation at 170 g for 12 minutes. The platelet poor plasma (PPP) was used as the blank for optical aggregometry. Compounds of the present invention in DMSO solution was preincubated with 250 μL PRP at 37° C. for 1 minute with stirring speed of 1000 rpm. Aggregation was initiated by addition of 2.5 μL of 1 mM ADP (Chrono-log, Havertown, Pa.) for a final ADP concentration of 10 μM. Platelet aggregation was monitored using Optical Aggregometer (Chrono-log, Havertown, Pa.) and the area under the curve (AUC) at 5 minute was measured. IC50 was calculated using vehicle control as 0% inhibition.

Chain of cloned human P2Y1 receptors (P47900 whole entry): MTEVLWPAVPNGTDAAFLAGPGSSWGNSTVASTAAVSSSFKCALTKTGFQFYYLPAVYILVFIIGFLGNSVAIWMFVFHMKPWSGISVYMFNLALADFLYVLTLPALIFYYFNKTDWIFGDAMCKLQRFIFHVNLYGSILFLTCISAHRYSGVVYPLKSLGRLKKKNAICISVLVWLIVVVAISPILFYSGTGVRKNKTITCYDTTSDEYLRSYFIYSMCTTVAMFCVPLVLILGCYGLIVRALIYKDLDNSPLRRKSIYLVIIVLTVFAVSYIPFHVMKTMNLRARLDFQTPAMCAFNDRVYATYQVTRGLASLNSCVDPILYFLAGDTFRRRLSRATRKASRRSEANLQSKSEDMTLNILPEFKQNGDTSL

`CC1(C)CN(c2ccccc2NC(=O)Nc2csc(Cl)n2)c2c(O)cc(F)c(-c3nc4ccc(F)cc4s3)c21` [Example 150, 1-(2-Chlorothiazol-4-yl)-3-(2-(5-fluoro-4-(6-fluorobenzo[d]thiazol-2-yl)-7-hydroxy-3,3-dimethylindolin-1-yl)phenyl)urea] showed a Ki [1] of 32.7 nM and an IC50 [2] of 0.41 µM.
In the case of `CC1(C)CN(c2ccccc2NC(=O)Nc2ccc(OC(F)(F)F)cc2)c2c(O)cc(F)c(-c3nc4cc(F)ccc4s3)c21` [Example 151, 1-(2-(5-Fluoro-4-(5-fluorobenzo[d]thiazol-2-yl)-7-hydroxy-3,3-dimethylindolin-1-yl)phenyl)-3-(4-(trifluoromethoxy)phenyl)urea], the Ki [1] is reported as 24.1 nM and the IC50 [2] is reported as 0.48 µM.
With `CC1(C)CN(c2ccccc2NC(=O)Nc2nc3ccc(F)cc3s2)c2c(O)cc(F)c(-c3nc4cc(F)ccc4s3)c21` [Example 152, 1-(2-(5-Fluoro-4-(5-fluorobenzo[d]thiazol-2-yl)-7-hydroxy-3,3-dimethylindolin-1-yl)phenyl)-3-(6-fluorobenzo[d]thiazol-2-yl)urea] the Ki [1] was 25.4 nM and the IC50 [2] was 0.3 µM.
Work on `CC1(C)CN(c2ccccc2NC(=O)Nc2nc3ccc(Cl)nc3s2)c2c(O)cc(F)c(-c3nc4cc(F)ccc4s3)c21` [Example 153, 1-(5-Chlorothiazolo[5,4-b]pyridin-2-yl)-3-(2-(5-fluoro-4-(5-fluorobenzo[d]thiazol-2-yl)-7-hydroxy-3,3-dimethylindolin-1-yl)phenyl)urea] yielded a Ki [1] of 15.4 nM and an IC50 [2] of 0.23 µM.
In the case of `CC1(C)CN(c2ccccc2NC(=O)Nc2nc3ccc(Cl)cc3s2)c2c(O)cc(F)c(-c3nc4cc(F)ccc4s3)c21` [Example 154, 1-(6-Chlorobenzo[d]thiazol-2-yl)-3-(2-(5-fluoro-4-(5-fluorobenzo[d]thiazol-2-yl)-7-hydroxy-3,3-dimethylindolin-1-yl)phenyl)urea], the Ki [1] is reported as 22.5 nM and the IC50 [2] is reported as 0.35 µM.
In the case of `CC1(C)CN(c2ccccc2NC(=O)Nc2nc3ccc(F)cc3s2)c2c(O)cc(F)c(-c3nc4ccc(Cl)cc4s3)c21` [Example 155, 1-(2-(4-(6-Chlorobenzo[d]thiazol-2-yl)-5-fluoro-7-hydroxy-3,3-dimethylindolin-1-yl)phenyl)-3-(6-fluorobenzo[d]thiazol-2-yl)urea], the Ki [1] is reported as 38 nM and the IC50 [2] is reported as 0.6 µM.
`CC1(C)CN(c2ccccc2NC(=O)Nc2nc3ccc(F)nc3s2)c2c(O)cc(F)c(-c3nc4cc(Cl)ccc4s3)c21` [Example 157, 1-(2-(4-(5-Chlorobenzo[d]thiazol-2-yl)-5-fluoro-7-hydroxy-3,3-dimethylindolin-1-yl)phenyl)-3-(5-fluorothiazolo[5,4-b]pyridin-2-yl)urea] was tested, and the Ki [1] was 18.7 nM and the IC50 [2] was 0.28 µM.
Work on `CC1(C)CN(c2ccccc2NC(=O)Nc2nc3ccc(F)cc3s2)c2c(O)cc(F)c(-c3ccc(C(F)(F)F)nc3)c21` [Example 158, 1-(2-(5-Fluoro-7-hydroxy-3,3-dimethyl-4-(6-(trifluoromethyl)pyridin-3-yl)indolin-1-yl)phenyl)-3-(6-fluorobenzo[d]thiazol-2-yl)urea] yielded a Ki [1] of 5.7 nM and an IC50 [2] of 0.2 µM.
In the case of `CC1(C)CN(c2ccccc2NC(=O)Nc2ccc(OC(F)(F)F)cc2)c2c(O)cc(F)c(-c3ccc(F)cn3)c21` [Example 159, 1-(2-(5-Fluoro-4-(5-fluoropyridin-2-yl)-7-hydroxy-3,3-dimethylindolin-1-yl)phenyl)-3-(4-(trifluoromethoxy)phenyl)urea], the Ki [1] is reported as 7.4 nM and the IC50 [2] is reported as 0.3 µM.
With `CC(C)(C)c1ncc(-c2c(F)cc(O)c3c2C(C)(C)CN3c2ccccc2NC(=O)Nc2ccc(OC(F)(F)F)cc2)cn1` [Example 160, 1-(2-(4-(2-(tert-Butyl)pyrimidin-5-yl)-5-fluoro-7-hydroxy-3,3-dimethylindolin-1-yl)phenyl)-3-(4-(trifluoromethoxy)phenyl)urea] the Ki [1] was 13.1 nM and the IC50 [2] was 0.09 µM.
`CC1(C)CN(c2ccccc2NC(=O)Nc2ccc(OC(F)(F)F)cc2)c2c(O)cc(F)c(-c3cc(F)nc(F)c3)c21` [Example 161, 1-(2-(4-(2,6-Difluoropyridin-4-yl)-5-fluoro-7-hydroxy-3,3-dimethylindolin-1-yl)phenyl)-3-(4-(trifluoromethoxy)phenyl)urea] showed a Ki [1] of 6.6 nM and an IC50 [2] of 0.16 µM.
